Experimental data: ChEMBL document CHEMBL5346923, “Novel pyridinium cationic pleuromutilin analogues overcoming bacterial multidrug resistance” (Eur J Med Chem, 2023)
In brackets after ≈: the same amount, converted by molar mass.

Assays:
Type in all cases: functional
Proteus = experiment: Antibacterial activity against Proteus CMCC (B) 49027 assessed as inhibition of bacterial growth measured after 24 hrs by MH broth based assay
Escherichia coli [1] = experiment: Antibacterial activity against Escherichia coli MG1655 assessed as inhibition of bacterial growth measured after 24 hrs by MH broth based assay
Streptococcus pneumoniae = experiment: Antibacterial activity against Streptococcus pneumoniae ATCC 49619 assessed as inhibition of bacterial growth measured after 24 hrs by MH broth based assay
Klebsiella pneumoniae = experiment: Antibacterial activity against Klebsiella pneumonia CMCC (B) 46117 assessed as inhibition of bacterial growth measured after 24 hrs by MH broth based assay
Enterococcus = experiment: Antibacterial activity against vancomycin-resistant Enterococcus ATCC 700221 assessed as inhibition of bacterial growth measured after 24 hrs by MH broth based assay
Bacillus subtilis = experiment: Antibacterial activity against Bacillus subtilis ATCC 6633 assessed as inhibition of bacterial growth measured after 24 hrs by MH broth based assay
[2] = system: Staphylococcus epidermidis; experiment: Antibacterial activity against methicillin-resistant Staphylococcus epidermidis ATCC 51625 assessed as inhibition of bacterial growth measured after 24 hrs by MH broth based assay
Escherichia coli [3] = experiment: Antibacterial activity against Escherichia coli ATCC 25922 assessed as inhibition of bacterial growth measured after 24 hrs by MH broth based assay
Escherichia coli [4] = experiment: Antibacterial activity against Escherichia coli MG1655 harbouring acrB gene assessed as inhibition of bacterial growth measured after 24 hrs by MH broth based assay
Staphylococcus aureus [5] = experiment: Antibacterial activity against Staphylococcus aureus ATCC 29213 assessed as inhibition of bacterial growth measured after 24 hrs by MH broth based assay
Staphylococcus aureus [6] = experiment: Antibacterial activity against methicillin-resistant Staphylococcus aureus ATCC 43300 assessed as inhibition of bacterial growth measured after 24 hrs by MH broth based assay

| SMILES | MIC (Proteus) [µg/mL] | MIC (Escherichia coli [1]) [µg/mL] | MIC (Streptococcus pneumoniae) [µg/mL] | MIC (Klebsiella pneumoniae) [µg/mL] | MIC (Enterococcus) [µg/mL] | MIC (Bacillus subtilis) [µg/mL] | MIC [2] [µg/mL] | MIC (Escherichia coli [3]) [µg/mL] | MIC (Escherichia coli [4]) [µg/mL] | MIC (Staphylococcus aureus [5]) [µg/mL] | MIC (Staphylococcus aureus [6]) [µg/mL] |
| --- | --- | --- | --- | --- | --- | --- | --- | --- | --- | --- | --- |
| CN[C@H](CC(C)C)C(=O)N[C@H]1C(=O)N[C@@H](CC(N)=O)C(=O)N[C@H]2C(=O)N[C@H]3C(=O)N[C@H](C(=O)N[C@H](C(=O)O)c4cc(O)cc(O)c4-c4cc3ccc4O)[C@H](O)c3ccc(c(Cl)c3)Oc3cc2cc(c3O[C@@H]2O[C@H](CO)[C@@H](O)[C@H](O)[C@H]2O[C@H]2C[C@](C)(N)[C@H](O)[C@H](C)O2)Oc2ccc(cc2Cl)[C@H]1O [VANCOMYCIN] | > 64 | > 64 | 0.25 (≈ 0.173 µM) | > 64 | 64 (≈ 44.2 µM) | 0.125 (≈ 0.0863 µM) | 0.5 (≈ 0.345 µM) | > 64 | > 64 | – | – |
| C=C[C@]1(C)C[C@@H](OC(=O)CSc2cc[n+](Cc3cccc(NC(=O)OC(C)(C)C)c3)cc2)[C@]2(C)[C@H](C)CC[C@]3(CCC(=O)[C@H]32)[C@@H](C)[C@@H]1O.[I-] | > 64 | 64 | < 0.031 | 64 | 16 | 64 | 0.125 | 64 | 4 | 0.5 | 0.5 |
| C=C[C@]1(C)C[C@@H](OC(=O)CSc2cc[n+](CCCCCCC(=O)O)cc2)[C@]2(C)[C@H](C)CC[C@]3(CCC(=O)[C@H]32)[C@@H](C)[C@@H]1O.[I-] | 64 | 64 | 0.5 | 64 | 64 | 64 | 2 | 64 | 32 | 0.5 | 0.5 |
| C=C[C@]1(C)C[C@@H](OC(=O)CSc2cc[n+](CCCCCCCCCCCC)cc2)[C@]2(C)[C@H](C)CC[C@]3(CCC(=O)[C@H]32)[C@@H](C)[C@@H]1O.[I-] | 64 | 32 | 4 | 32 | 16 | 8 | 8 | 32 | 8 | 8 | 8 |
| C=C[C@]1(C)C[C@@H](OC(=O)CSc2cc[n+](CCCCCCCCCC)cc2)[C@]2(C)[C@H](C)CC[C@]3(CCC(=O)[C@H]32)[C@@H](C)[C@@H]1O.[I-] | 64 | 16 | 0.125 | 2 | 4 | 2 | 0.5 | 16 | 1 | 0.25 | 1 |
| C=C[C@]1(C)C[C@@H](OC(=O)CSc2cc[n+](Cc3ccc(-c4ccccc4C#N)cc3)cc2)[C@]2(C)[C@H](C)CC[C@]3(CCC(=O)[C@H]32)[C@@H](C)[C@@H]1O.[I-] | > 64 | 64 | < 0.031 | 32 | 32 | 32 | 0.125 | 64 | 8 | 1 | 1 |
| C=C[C@]1(C)C[C@@H](OC(=O)CSc2cc[n+](CCCCCCCC(=O)O)cc2)[C@]2(C)[C@H](C)CC[C@]3(CCC(=O)[C@H]32)[C@@H](C)[C@@H]1O.[I-] | > 64 | > 64 | 2 | > 64 | 64 | > 64 | 4 | > 64 | 32 | 8 | 8 |
| C=C[C@]1(C)C[C@@H](OC(=O)CSc2cc[n+](CCCC)cc2)[C@]2(C)[C@H](C)CC[C@]3(CCC(=O)[C@H]32)[C@@H](C)[C@@H]1O.[Br-] | > 64 | 64 | 0.063 | 32 | 16 | 64 | 0.125 | 64 | 1 | 0.25 | 0.25 |
| C=C[C@]1(C)C[C@@H](OC(=O)CSc2cc[n+](CCCCCCCCCCC(=O)O)cc2)[C@]2(C)[C@H](C)CC[C@]3(CCC(=O)[C@H]32)[C@@H](C)[C@@H]1O.[I-] | 64 | 64 | 0.5 | 64 | 64 | 64 | 2 | 64 | 32 | 0.5 | 0.5 |
| C=C[C@]1(C)C[C@@H](OC(=O)CSc2cc[n+](CC(=O)N3CCS(=O)(=O)CC3)cc2)[C@]2(C)[C@H](C)CC[C@]3(CCC(=O)[C@H]32)[C@@H](C)[C@@H]1O.[I-] | > 64 | 32 | 2 | > 64 | 64 | > 64 | 4 | > 64 | 16 | 8 | 8 |
| C#CC[n+]1ccc(SCC(=O)O[C@@H]2C[C@@](C)(C=C)[C@@H](O)[C@H](C)[C@]34CCC(=O)[C@H]3[C@@]2(C)[C@H](C)CC4)cc1.[I-] | > 64 | 64 | < 0.031 | 8 | 16 | 32 | 0.031 | 64 | 0.5 | 0.125 | 0.125 |
| C=C[C@]1(C)C[C@@H](OC(=O)CSc2cc[n+](CCC)cc2)[C@]2(C)[C@H](C)CC[C@]3(CCC(=O)[C@H]32)[C@@H](C)[C@@H]1O.[I-] | 64 | 64 | 0.063 | 32 | 16 | 64 | 0.125 | 64 | 0.5 | 0.25 | 0.25 |
| C=C[C@]1(C)C[C@@H](OC(=O)CSc2cc[n+](CC(=O)N3CCOCC3)cc2)[C@]2(C)[C@H](C)CC[C@]3(CCC(=O)[C@H]32)[C@@H](C)[C@@H]1O.[I-] | > 64 | 64 | 4 | > 64 | 64 | > 64 | 8 | > 64 | 8 | 16 | 16 |
| C=C[C@]1(C)C[C@@H](OC(=O)CSc2cc[n+](CC(=O)N3CCC(CO)CC3)cc2)[C@]2(C)[C@H](C)CC[C@]3(CCC(=O)[C@H]32)[C@@H](C)[C@@H]1O.[I-] | > 64 | 64 | 2 | 64 | 64 | 64 | 4 | 64 | 16 | 2 | 2 |
| C=C[C@]1(C)C[C@@H](OC(=O)CSc2cc[n+](Cc3ccc(C(=O)OC(C)(C)C)cc3)cc2)[C@]2(C)[C@H](C)CC[C@]3(CCC(=O)[C@H]32)[C@@H](C)[C@@H]1O.[I-] | > 64 | 64 | 0.25 | 64 | 64 | 64 | 0.5 | 64 | 4 | 1 | 1 |
| C#CCC[n+]1ccc(SCC(=O)O[C@@H]2C[C@@](C)(C=C)[C@@H](O)[C@H](C)[C@]34CCC(=O)[C@H]3[C@@]2(C)[C@H](C)CC4)cc1.[I-] | > 64 | 64 | 0.125 | 64 | 64 | 64 | 0.25 | 64 | 1 | 0.5 | 0.5 |
| C=C[C@]1(C)C[C@@H](OC(=O)CSc2cc[n+](CC(=O)NCc3ccccc3C)cc2)[C@]2(C)[C@H](C)CC[C@]3(CCC(=O)[C@H]32)[C@@H](C)[C@@H]1O.[I-] | 64 | 32 | 0.5 | 8 | 64 | 64 | 1 | 64 | 1 | 0.5 | 0.5 |
| C=C[C@]1(C)C[C@@H](OC(=O)CSc2cc[n+](CCCC)cc2)[C@]2(C)[C@H](C)CC[C@]3(CCC(=O)[C@H]32)[C@@H](C)[C@@H]1O.[I-] | > 64 | 64 | < 0.031 | 16 | 16 | 64 | 0.063 | 64 | 0.5 | 0.25 | 0.25 |
| C=C[C@]1(C)C[C@@H](OC(=O)CSc2cc[n+](CC(=O)N3CCCC3)cc2)[C@]2(C)[C@H](C)CC[C@]3(CCC(=O)[C@H]32)[C@@H](C)[C@@H]1O.[I-] | > 64 | 64 | 1 | 64 | 64 | > 64 | 2 | 64 | 4 | 4 | 4 |
| C=C[C@]1(C)C[C@@H](OC(=O)CSc2cc[n+](CC(=O)N3CCCCC3)cc2)[C@]2(C)[C@H](C)CC[C@]3(CCC(=O)[C@H]32)[C@@H](C)[C@@H]1O.[I-] | > 64 | 64 | 0.125 | 64 | 64 | > 64 | 0.125 | 64 | 2 | 0.25 | 0.25 |
